Measurements from patent US11629171B2, “Beta-hairpin peptidomimetics” (POLYPHOR AG, priority 2017, dated 2023).
Values after ≈ are worked out from the molar mass of the structure shown. Where a SMILES comes first, the peptide text is derived from it. Bridges are numbered along the chain shown (N, C = ends). Roman numbers before positions name the chains, in order. [ ]: non-standard residue; d: D form. The star is where a group is joined. Tle = CC(C)(C)[C@H](N)C(=O)O; Hiv = CC(C)[C@H](O)C(=O)O; dDab = NCC[C@@H](N)C(=O)O; hSer = N[C@@H](CCO)C(=O)O; NHCH(CH2OH)2 = OCC(CO)N*; Dab = NCC[C@H](N)C(=O)O; Abu = CC[C@H](N)C(=O)O; Dap = NC[C@H](N)C(=O)O

Tests used:
[1] = system: human red blood cells (hRBC); assay: Hemolysis; assay type: cell-based; details: red cells of human, 1 h, 200
Summary of the method: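 Read-out is supernatant absorbance at 540 nm, normalised to full lysis by 2% Triton X-100 and zero lysis by PBS with 10% water. Peptides (200 μg/mL) were exposed to 20% v/v washed human erythrocytes at 37° C for 1 h under shaking.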

[2] = system: Escherichia coli ATCC 25922; assay type: cell-based; details: ATCC 25922
Summary of the method: (§1)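 CLSI broth microdilution in cation-adjusted Mueller-Hinton II broth with 0.002% polysorbate 80 (final), inoculum appr. 10^6 CFU/mL, peptides in serial two-fold dilutions. MIC (μg/mL) is the lowest concentration without visible growth after 18-20 h at 35° C.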

[3] = system: Klebsiella pneumoniae SSI #3010; assay type: cell-based; details: SSI #3010
Summary of the method: as §1

[4] = system: Acinetobacter baumannii DSM 30008; assay type: cell-based; details: DSM 30008
Summary of the method: as §1

[5] = system: Acinetobacter baumannii 872842; assay type: cell-based; details: 872842
Summary of the method: as §1

Escherichia coli 926415 = assay type: cell-based; details: 926415
Summary of the method: as §1

[6] = system: Klebsiella pneumoniae 968733; assay type: cell-based; details: 968733
Summary of the method: as §1

[7] = system: Enterobacter cloacae 848840; assay type: cell-based; details: 848840
Summary of the method: as §1

[8] = system: Pseudomonas aeruginosa ATCC 27853; assay type: cell-based; details: ATCC 27853
Summary of the method: as §1

male ICR mice = assay: Tolerability in a mouse model (Maximum Tolerated Dose assay); assay type: in vivo; details: 2 × 30 mg/kg s.c. at a 12-hr interval, groups of 3
Description: The tolerability of the peptides was tested in a mouse model at Pharmacology Discovery Services Taiwan Ltd, Taipei, Taiwan. The peptides were administered subcutaneously (s.c.) at 30 mg/kg or 40 mg/kg, respectively; twice at a 12-hr interval, for assessment of possible adverse effects in the Maximum Tolerated Dose (MTD) assay in male ICR (Institute of Cancer Research) mice. The peptides were dissolved in 0.9% NaCl at the concentrations either of 6 or 8 mg/mL, respectively, based on the free base molecular weight. The pH values of dosing solutions were adjusted to 6.5-7.6 before s.c. administration. A dosing volume at 5 mL/kg and a concentration of 6 or 8 mg/mL, respectively, was applied. The fresh prepared stock solution were stored at 4° C. during the study. Male ICR mice weighing 23±3 g were provided by BioLasco Taiwan (under Charles River Laboratories Licensee). Animals were acclimated for 3 days prior to use and were confirmed to be in good health. The peptides were administered s.c. at 30 mg/kg or 40 mg/kg, respectively, twice at a 12-hr interval, to groups of 3 ICR male mice and observed for the presence of acute toxic symptoms (mortality, convulsions, tremors, muscle relaxation, sedation, etc.) and autonomic effects (diarrhea, salivation, lacrimation, vasodilation, piloerection, etc.) during the first 30 min. The peptides were administered again at a 12-hr (two total doses) interval, following the first dose. The animals were then observed again for the presence of acute toxic symptoms and autonomic effects during the first 30 min.

SMILES	Hemolysis at 200 μg/mL [1]	MIC [2]	MIC [3]	MIC [4]	MIC [5]	MIC (Escherichia coli 926415)	MIC [6]	MIC [7]	MIC [8]	Mortality and dose (male ICR mice)
CC(=O)N[C@@H](Cc1ccc(O)cc1)C(=O)N[C@H]1CSSC[C@@H](C(=O)NC(CO)CO)NC(=O)[C@H](C(C)(C)C)NC(=O)[C@H](CO)NC(=O)[C@H](Cc2c[nH]c3ccccc23)NC(=O)[C@H](CCO)NC(=O)[C@@H](CCN)NC(=O)[C@H](CCC(=O)N[C@@H](CCN)C(=O)N[C@H](C(=O)N[C@@H](CCN)C(=O)N[C@H]2CCNC(=O)[C@H]([C@@H](C)O)NC(=O)[C@H](CCN)NC(=O)[C@H](CCN)NC(=O)[C@H](CC(C)C)NC(=O)[C@@H](CC(C)C)NC(=O)[C@H](CCN)NC2=O)[C@@H](C)O)NC(=O)[C@H](CCN)NC(=O)[C@H](C(C)C)NC1=O [Ex. 96] (I: Ac-YCV[Dab]E[dDab][hSer]WS[Tle]C-{NHCH(CH2OH)2} / II: [Dab]T[Dab][Dab][Dab][dL]L[Dab][Dab]T; disulfide I:2-I:11; amide I:5-II:N; lactam II:4-II:C)	<1%	0.0625 µg/mL (≈ 0.0257 µM)	0.125 µg/mL (≈ 0.0515 µM)	0.125 µg/mL (≈ 0.0515 µM)	0.5 µg/mL (≈ 0.206 µM)	0.5 µg/mL (≈ 0.206 µM)	0.125 µg/mL (≈ 0.0515 µM)	8 µg/mL (≈ 3.3 µM)	0.125 µg/mL (≈ 0.0515 µM)	0/3 died at 2 × 30 mg/kg
CC(=O)N[C@H](C(=O)N[C@H]1CSSC[C@@H](C(=O)N[C@@H](CO)C(N)=O)NC(=O)[C@H](C(C)(C)C)NC(=O)[C@H](CO)NC(=O)[C@H](Cc2c[nH]c3ccccc23)NC(=O)[C@H](CO)NC(=O)[C@@H](CCN)NC(=O)[C@H](CCC(=O)N[C@@H](CCN)C(=O)N[C@H](C(=O)N[C@@H](CN)C(=O)N[C@H]2CCNC(=O)[C@H]([C@@H](C)O)NC(=O)[C@H](CCN)NC(=O)[C@H](CCN)NC(=O)[C@H](CC(C)C)NC(=O)[C@@H](CC(C)C)NC(=O)[C@H](CCN)NC2=O)[C@@H](C)O)NC(=O)[C@H](CCN)NC(=O)[C@H](Cc2ccc(O)cc2)NC1=O)C(C)C [Ex. 114] (I: Ac-VCY[Dab]E[dDab]SWS[Tle]CS-NH2 / II: [Dab]T[Dap][Dab][Dab][dL]L[Dab][Dab]T; disulfide I:2-I:11; amide I:5-II:N; lactam II:4-II:C)	<1%	0.03125 µg/mL (≈ 0.013 µM)	0.0625 µg/mL (≈ 0.0259 µM)	0.0625 µg/mL (≈ 0.0259 µM)	0.03125 µg/mL (≈ 0.013 µM)	0.0625 µg/mL (≈ 0.0259 µM)	0.0625 µg/mL (≈ 0.0259 µM)	0.0625 µg/mL (≈ 0.0259 µM)	0.125 µg/mL (≈ 0.0518 µM)	0/3 died at 2 × 30 mg/kg
CC(C)C[C@@H]1NC(=O)[C@@H](CC(C)C)NC(=O)[C@H](CCN)NC(=O)[C@@H](NC(=O)[C@H](CN)NC(=O)[C@@H](NC(=O)[C@H](CCN)NC(=O)CC[C@@H]2NC(=O)[C@H](CCN)NC(=O)[C@H](Cc3ccc(O)cc3)NC(=O)[C@@H](NC(=O)[C@@H](O)C(C)C)CSSC[C@@H](C(=O)N[C@@H](CO)C(N)=O)NC(=O)[C@H](C(C)C)NC(=O)[C@H](CO)NC(=O)[C@H](Cc3c[nH]c4ccccc34)NC(=O)[C@H](CO)NC(=O)[C@@H](CCN)NC2=O)[C@@H](C)O)CCNC(=O)[C@H]([C@@H](C)O)NC(=O)[C@H](CCN)NC(=O)[C@H](CCN)NC1=O [Ex. 115] (I: H-[Hiv]CY[Dab]E[dDab]SWSVCS-NH2 / II: [Dab]T[Dap][Dab][Dab][dL]L[Dab][Dab]T; disulfide I:2-I:11; amide I:5-II:N; lactam II:4-II:C)	<1%	0.0625 µg/mL (≈ 0.0265 µM)	0.0625 µg/mL (≈ 0.0265 µM)	0.0625 µg/mL (≈ 0.0265 µM)	0.125 µg/mL (≈ 0.053 µM)	0.125 µg/mL (≈ 0.053 µM)	0.25 µg/mL (≈ 0.106 µM)	0.0625 µg/mL (≈ 0.0265 µM)	0.125 µg/mL (≈ 0.053 µM)	0/3 died at 2 × 30 mg/kg
CC(=O)N[C@H](C(=O)N[C@H]1CSSC[C@@H](C(=O)NC(CO)CO)NC(=O)[C@H](C(C)C)NC(=O)[C@H](CO)NC(=O)[C@H](Cc2c[nH]c3ccccc23)NC(=O)[C@H](CO)NC(=O)[C@@H](CCN)NC(=O)[C@H](CCC(=O)N[C@@H](CCN)C(=O)N[C@H](C(=O)N[C@@H](CN)C(=O)N[C@H]2CCNC(=O)[C@H]([C@@H](C)O)NC(=O)[C@H](CCN)NC(=O)[C@H](CCN)NC(=O)[C@H](CC(C)C)NC(=O)[C@@H](CC(C)C)NC(=O)[C@H](CCN)NC2=O)[C@@H](C)O)NC(=O)[C@H](CCN)NC(=O)[C@H](Cc2ccc(O)cc2)NC1=O)C(C)C [Ex. 116] (I: Ac-VCY[Dab]E[dDab]SWSVC-{NHCH(CH2OH)2} / II: [Dab]T[Dap][Dab][Dab][dL]L[Dab][Dab]T; disulfide I:2-I:11; amide I:5-II:N; lactam II:4-II:C)	<1%	0.03125 µg/mL (≈ 0.0131 µM)	0.03125 µg/mL (≈ 0.0131 µM)	0.03125 µg/mL (≈ 0.0131 µM)	0.0625 µg/mL (≈ 0.0262 µM)	0.125 µg/mL (≈ 0.0524 µM)	0.25 µg/mL (≈ 0.105 µM)	0.03125 µg/mL (≈ 0.0131 µM)	0.125 µg/mL (≈ 0.0524 µM)	0/3 died at 2 × 30 mg/kg
CC[C@@H]1NC(=O)[C@@H](CC(C)C)NC(=O)[C@H](CCN)NC(=O)[C@@H](NC(=O)[C@H](CN)NC(=O)[C@@H](NC(=O)[C@H](CCN)NC(=O)CC[C@@H]2NC(=O)[C@H](CCN)NC(=O)[C@H](Cc3ccc(O)cc3)NC(=O)[C@@H](NC(=O)[C@@H](NC(C)=O)C(C)C)CSSC[C@@H](C(=O)N[C@@H](CO)C(N)=O)NC(=O)[C@H](C(C)C)NC(=O)[C@H](CO)NC(=O)[C@H](Cc3c[nH]c4ccccc34)NC(=O)[C@H](CO)NC(=O)[C@@H](CCN)NC2=O)[C@@H](C)O)CCNC(=O)[C@H]([C@@H](C)O)NC(=O)[C@H](CCN)NC(=O)[C@H](CCN)NC1=O [Ex. 137] (I: Ac-VCY[Dab]E[dDab]SWSVCS-NH2 / II: [Dab]T[Dap][Dab][Dab][dL][Abu][Dab][Dab]T; disulfide I:2-I:11; amide I:5-II:N; lactam II:4-II:C)	1%	0.03125 µg/mL (≈ 0.0132 µM)	0.0625 µg/mL (≈ 0.0264 µM)	0.0625 µg/mL (≈ 0.0264 µM)	0.125 µg/mL (≈ 0.0527 µM)	0.125 µg/mL (≈ 0.0527 µM)	0.125 µg/mL (≈ 0.0527 µM)	0.0625 µg/mL (≈ 0.0264 µM)	0.125 µg/mL (≈ 0.0527 µM)	0/3 died at 2 × 30 mg/kg
CC(=O)N[C@H](C(=O)N[C@H]1CSSC[C@@H](C(=O)N[C@@H](CO)C(N)=O)NC(=O)[C@H](C(C)C)NC(=O)[C@H](CCC(=O)O)NC(=O)[C@H](Cc2c[nH]c3ccccc23)NC(=O)[C@H](CO)NC(=O)[C@@H](CCN)NC(=O)[C@H](CCC(=O)N[C@@H](CCN)C(=O)N[C@H](C(=O)N[C@@H](CN)C(=O)N[C@H]2CCNC(=O)[C@H]([C@@H](C)O)NC(=O)[C@H](CCN)NC(=O)[C@H](CCN)NC(=O)[C@H](CC(C)C)NC(=O)[C@@H](CC(C)C)NC(=O)[C@H](CCN)NC2=O)[C@@H](C)O)NC(=O)[C@H](CCN)NC(=O)[C@H](Cc2ccc(O)cc2)NC1=O)C(C)C [Ex. 150] (I: Ac-VCY[Dab]E[dDab]SWEVCS-NH2 / II: [Dab]T[Dap][Dab][Dab][dL]L[Dab][Dab]T; disulfide I:2-I:11; amide I:5-II:N; lactam II:4-II:C)	<1%	0.03125 µg/mL (≈ 0.0128 µM)	0.125 µg/mL (≈ 0.0512 µM)	0.0625 µg/mL (≈ 0.0256 µM)	0.125 µg/mL (≈ 0.0512 µM)	0.25 µg/mL (≈ 0.102 µM)	0.5 µg/mL (≈ 0.205 µM)	0.125 µg/mL (≈ 0.0512 µM)	0.125 µg/mL (≈ 0.0512 µM)	0/3 died at 2 × 30 mg/kg
